How the values were obtained:
[1] = large amount, certain condition in vitro; cited from earlier work
[2] = system: acute ischemia-reperfusion heart injuries; details: cited from earlier work
cGMP = cGMP ELISA in neonatal rat fibroblasts; type: cell-based; details: 3 h
Procedure: Neonatal rat cardiac fibroblasts were isolated from 1-2-day-old Sprague-Dawley rats as described previously. Briefly, hearts from newborn 1-2-day-old Sprague-Dawley rats were minced on ice, and cells were isolated by trypsin incubation at 37° C. Non-cardiomyocytes were separated from the cardiomyocytes by differential pre-plating, and then cardiomyocytes were removed with fibroblasts seeded in culture dishes. The cells were passaged after 3 days, using a 0.05% trypsin solution. Cells were cultured in DEME/F12 medium with 5% fetal calf serum, and maintained at 37° C., 5% CO2 condition. cGMP levels in the neonatal rat fibroblasts after treated with vehicle or compound A or sildenafil were measured with an ELISA kit following the manufacture's instruction. Quiescent cells were cultured with different doses of compound A ([…]) or sildenafil ([…]) for 3 h. After treatment, the cells were lysed with 0.1N HCl, and performed cGMP ELISA assay.

[3] = Solubility of compound A sodium; type: physicochemical
Source text: Only organic solvent which are already approved by FDA for i.v. administration were used for increasing solubility of compound A. After extensive screening of several solvents, the invention disclosed an optimized solvent system for compound A, which composed of saline at pH 10.0, 25% of ethanol and 20% of propylene glycol (2%, w/w) (compound A sodium).

[4] = system: Diabetic cardiomyopathy (DCM) rats; experiment: Streptozotocin-induced diabetic cardiomyopathy; type: in vivo, Wistar rats; details: STZ diabetes, 12-16 weeks; for cardiac function comparing to group B: pressure-volume system
Procedure: Diabetic cardiomyopathy (DCM) Diabetic induced injury to the myocardium. DCM, induced by streptozotocin (STZ), along with the associated changes occurring in inflammation, oxidative stress and fibrosis markers. Wistar rats were randomly divided into four groups: group A (Normal control), group B (Diabetes), group […] group D (DM/TMZ, trimetazidine treatment). After 12-16 weeks, left ventricular function was measured by the pressure-volume system. Cardiac tissues were prepared for histological study by hematoxlyin and eosin, Sirius red staining as well as for assays of oxidative stress. Oxidative stress, inflammation, and fibrosis markers were evaluated by molecular biological techniques. All data were measured morphometrically and statistically analyzed.

| SMILES | mutagenicity [1] | cardioprotective effect and arrhythmia [2] | Stimulated production of cGMP (cGMP; 1 um) [%] | Stimulated production of cGMP (cGMP; 10 um) [%] | solubility of sodium salt relative to compound A [3] | blood glucose level and insulin levels comparing to Diabetes group [4] | cardiac function comparing to group B [4] | cardiac hypertrophy [4] |
| --- | --- | --- | --- | --- | --- | --- | --- | --- |
| C=C1C[C@@]23CC[C@H]4[C@@](C)(CCC[C@@]4(C)C(=O)O)[C@@H]2CC[C@]1(O)C3 (single isomer, unassigned; ent-13) [Compound B, ent-13-hydroxykaur-16-en-18-oic acid] | may be mutagenic | cardioprotective effect | – | – | – | – | – | – |
| CC12CCC3C(CCC4C(C)(C(=O)[O-])CCCC34C)(CC1=O)C2.[Na+] (stereo not shown) [Compound A-1Na] | – | – | 157 ± 43 | 207 ± 54 | better solubility | no significant changes | significantly improved | – |
| COc1ccc(CN2CCNCC2)c(OC)c1OC [TMZ, trimetazidine, reference compound] | – | – | – | – | – | no significant changes | significantly improved | significant inhibited |

— patent US20180214400A1, “THE USE OF KAURANES COMPOUNDS IN THE MANUFACTURE OF MEDICAMENT FOR TREATMENT OF CADIAC HYPERTROPY AND PULMONARY HYPERTENSION” (KEY-PHARMA BIOMEDICAL INC., priority 2015, published 2018)
